Experimental data published in US11091471B2, “Isoxazolyl ether derivatives as GABAA α5 PAM” (Hoffmann-La Roche Inc., priority 2016, dated 2021).

Target: h-GABA-A α5β3γ2 (Homo sapiens (Human), UniProt P18507+P31644)
Experiment: Two-electrode voltage clamp electrophysiology in Xenopus oocytes expressing GABAA receptors, modulation of GABA EC20 current
Type: cell-based
Description: Xenopus laevis oocytes at maturation stages V-VI were used for the expression of cloned mRNA encoding GABAA receptor subunits. Oocytes ready for RNA micro-injection were bought from Ecocyte, Castrop-Rauxel, Germany and stored in modified Barth's medium (composition in mM: NaCl 88, KCl 1, NaHCO3 2.4, HEPES 10, MgSO4 0.82, CaNO3 0.33, CaCl2 0.33, pH=7.5) at 20° C. until the experiment.
Oocytes were plated in 96-well plates to be used in an automated instrument (Robo-ocyte, MultiChannelSystems, Reutlingen, Germany) for microinjection and electrophysiological recordings. Approximately 50 nl of an aqueous solution containing the RNA transcripts for the subunits of the desired GABAA receptor was injected into each oocyte.
Electrophysiological experiments were performed on days 3 to 5 after the micro-injection of mRNA. During the experiment the oocytes were constantly superfused by a solution containing (in mM) NaCl 90, KCl 1, HEPES 5, MgCl2 1, CaCl2 1 (pH 7.4). Oocytes were impaled by two glass microelectrodes (resistance: 0.4 MΩ) which were filled with a solution containing KCl 1M+K-acetate 1.5 M and voltage-clamped to −80 mV. The recordings were performed at room temperature using the Roboocyte two-electrode voltage clamp system (Multichannelsystem). After an initial equilibration period of 1.5 min GABA was added for 1.5 min at a concentration evoking approximately 20% of a maximal current response (EC20). After another rest interval of 2.5 min GABA was again added evoking a response of similar amplitude and shape. […] Current traces were recorded at a digitization rate of 10 Hz during and shortly before and after the GABA application.
Each compound and concentration was tested on at least 3 oocytes.
For the analysis, the digitized current traces of the first and second GABA response were superimposed and, if necessary, rescaled to equal maximal amplitudes. The ratio between the two responses during the time interval of test compound application was calculated point by point. The extremum of the resulting “ratio trace” was taken as the efficacy (“Fold increase”) of the compound expressed as “% modulation of GABA EC20” (100*(Fold increase−1)).

[1] = Table 1, GABA at EC20, test compound at approx. 30 fold its Ki, Xenopus oocytes
[2] = Table 1, % modulation of GABA EC20 = 100*(Fold increase−1)
[3] = Table 2, reference compounds, % modulation of GABA EC20
[4] = Table 2, reference compounds, GABAA α5β3γ2 overexpressing oocytes

Chain of h-GABA-A α5β3γ2 (P31644 32-462): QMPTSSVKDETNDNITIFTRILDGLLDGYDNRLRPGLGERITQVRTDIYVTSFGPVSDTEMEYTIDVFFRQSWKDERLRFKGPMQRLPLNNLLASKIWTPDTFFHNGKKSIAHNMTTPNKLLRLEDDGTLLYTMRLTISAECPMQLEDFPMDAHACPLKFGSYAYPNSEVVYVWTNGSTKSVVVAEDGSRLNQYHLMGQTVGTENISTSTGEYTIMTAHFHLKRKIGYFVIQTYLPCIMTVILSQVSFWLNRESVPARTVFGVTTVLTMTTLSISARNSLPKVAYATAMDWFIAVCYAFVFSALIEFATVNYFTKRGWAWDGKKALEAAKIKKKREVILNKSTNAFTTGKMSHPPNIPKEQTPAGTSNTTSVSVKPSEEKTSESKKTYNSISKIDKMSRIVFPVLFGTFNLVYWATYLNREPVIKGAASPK
Chain of h-GABA-A α5β3γ2 (P28472 26-473 partner): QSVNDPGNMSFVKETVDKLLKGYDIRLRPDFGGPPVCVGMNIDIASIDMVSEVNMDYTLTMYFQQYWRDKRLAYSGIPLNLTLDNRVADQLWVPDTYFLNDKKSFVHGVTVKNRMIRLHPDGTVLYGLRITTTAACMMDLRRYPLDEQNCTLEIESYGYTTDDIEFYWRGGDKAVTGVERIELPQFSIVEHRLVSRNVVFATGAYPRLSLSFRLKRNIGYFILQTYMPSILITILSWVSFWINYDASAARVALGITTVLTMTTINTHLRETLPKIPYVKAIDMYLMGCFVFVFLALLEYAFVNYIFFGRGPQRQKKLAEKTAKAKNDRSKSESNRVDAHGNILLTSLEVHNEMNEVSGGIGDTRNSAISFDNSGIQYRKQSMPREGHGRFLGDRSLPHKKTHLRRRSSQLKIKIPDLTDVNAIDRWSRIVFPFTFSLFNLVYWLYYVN
Chain of h-GABA-A α5β3γ2 (P18507 40-475): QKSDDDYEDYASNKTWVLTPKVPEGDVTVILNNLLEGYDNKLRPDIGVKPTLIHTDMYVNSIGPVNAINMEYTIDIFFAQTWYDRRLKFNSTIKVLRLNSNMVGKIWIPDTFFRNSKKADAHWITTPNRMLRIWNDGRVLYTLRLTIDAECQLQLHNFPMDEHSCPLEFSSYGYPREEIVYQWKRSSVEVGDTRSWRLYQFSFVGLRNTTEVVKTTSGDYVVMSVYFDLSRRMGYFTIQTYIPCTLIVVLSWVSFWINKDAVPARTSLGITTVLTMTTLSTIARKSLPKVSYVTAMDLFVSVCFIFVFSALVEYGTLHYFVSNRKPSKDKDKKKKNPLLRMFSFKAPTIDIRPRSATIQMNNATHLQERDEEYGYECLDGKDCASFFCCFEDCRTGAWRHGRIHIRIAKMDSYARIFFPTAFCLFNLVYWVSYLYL

| Structure (SMILES) | Fold increase h-GABA-A α5β3γ2 oocyte [1] | also measured |
| --- | --- | --- |
| CCC[C@@H](CO)NC(=O)c1ccc(OCc2c(-c3ccc(C)nc3)noc2C)nc1 [Example 4, (S)—N-(1-hydroxypentan-2-yl)-6-((5-methyl-3-(6-methylpyridin-3-yl)isoxazol-4-yl)methoxy)nicotinamide] | 2.5 | – |
| Cc1ccc(-c2noc(C)c2COc2cc3c(cn2)C(=O)N(C)C3)cn1 [Example 10, 2-methyl-6-((5-methyl-3-(6-methylpyridin-3-yl)isoxazol-4-yl)methoxy)-1H-pyrrolo[3,4-c]pyridin-3(2H)-one] | 1.8 | – |
| CCC[C@@H](CO)NC(=O)c1cnc(OCc2c(-c3ccc(C)nc3)noc2C)cn1 [Example 14, N-((1S)-1-(hydroxymethyl)butyl)-5-((5-methyl-3-(6-methyl-3-pyridyl)isoxazol-4-yl)methoxy)pyrazine-2-carboxamide] | 2.6 | – |
| Cc1ccc(-c2noc(C)c2COc2ccc(C(N)=O)cn2)cn1 [Example 17, 6-((5-methyl-3-(6-methylpyridin-3-yl)isoxazol-4-yl)methoxy)nicotinamide] | 1.6 | – |
| Cc1ccc(-c2noc(C)c2COc2ccc(C(=O)NC3CC3)nn2)cn1 [Example 26, N-cyclopropyl-6-((5-methyl-3-(6-methylpyridin-3-yl)isoxazol-4-yl)methoxy)pyridazine-3-carboxamide] | 1.8 | – |
| Cc1ccc(-c2noc(C)c2COc2ccc(C(=O)NCC3(C)COC3)nn2)cn1 [Example 49, 6-((5-methyl-3-(6-methylpyridin-3-yl)isoxazol-4-yl)methoxy)-N-((3-methyloxetan-3-yl)methyl)pyridazine-3-carboxamide] | 1.7 | – |
| Cc1ccc(-c2noc(C)c2COc2ccc(C(=O)N3CCC(F)(F)CC3)nn2)cn1 [Example 53, (4,4-difluoropiperidin-1-yl)(6-((5-methyl-3-(6-methylpyridin-3-yl)isoxazol-4-yl)methoxy)pyridazin-3-yl)methanone] | 1.8 | – |
| Cc1ccc(-c2noc(C)c2COc2cnc(C(=O)NC3CCS(=O)(=O)CC3)cn2)cn1 [Example 72, N-(1,1-dioxothian-4-yl)-5-((5-methyl-3-(6-methyl-3-pyridyl)isoxazol-4-yl)methoxy)pyrazine-2-carboxamide] | 2.3 | – |
| Cc1ccc(-c2noc(C)c2COc2cnc(C(=O)NC3COC3)cn2)cn1 [Example 77, 5-((5-methyl-3-(6-methyl-3-pyridyl)isoxazol-4-yl)methoxy)-N-(oxetan-3-yl)pyrazine-2-carboxamide] | – | Efficacy (GABA) % [2]: 11% |
| Cc1ccc(-c2noc(C)c2COc2ccc(C(=O)N[C@@]3(C)CCOC3)nn2)cn1 [Example 81, (S)-6-((5-methyl-3-(6-methylpyridin-3-yl)isoxazol-4-yl)methoxy)-N-(3-methyltetrahydrofuran-3-yl)pyridazine-3-carboxamide] | 1.8 | – |
| Cc1ccc(-c2noc(C)c2COc2cnc(C(=O)NC3CCC(F)(F)CC3)cn2)cn1 [Example 86, N-(4,4-difluorocyclohexyl)-5-((5-methyl-3-(6-methyl-3-pyridyl)isoxazol-4-yl)methoxy)pyrazine-2-carboxamide] | 2.2 | – |
| Cc1ccc(-c2noc(C)c2COc2ccc(C(=O)N[C@H]3CCOC3)nn2)cn1 [Example 87, (S)-6-((5-methyl-3-(6-methylpyridin-3-yl)isoxazol-4-yl)methoxy)-N-(tetrahydrofuran-3-yl)pyridazine-3-carboxamide] | 1.8 | – |
| Cc1ccc(-c2noc(C)c2COc2cc3c(cn2)C(=O)N(C2CCS(=O)(=O)CC2)C3)cn1 [Example 91, 2-(1,1-dioxothian-4-yl)-6-((5-methyl-3-(6-methylpyridin-3-yl)-1,2-oxazol-4-yl)methoxy)-1H-pyrrolo[3,4-c]pyridin-3-one] | 2.4 | – |
| Cc1ccc(-c2noc(C)c2COc2ccc(C(=O)NC3CC4(COC4)C3)nn2)cn1 [Example 100, 6-((5-methyl-3-(6-methylpyridin-3-yl)isoxazol-4-yl)methoxy)-N-(2-oxaspiro[3.3]heptan-6-yl)pyridazine-3-carboxamide] | 1.7 | – |
| Cc1ccc(-c2noc(C)c2COc2ccc(C(=O)N[C@H]3CCCOC3)nn2)cn1 [Example 103, (S)-6-((5-methyl-3-(6-methylpyridin-3-yl)isoxazol-4-yl)methoxy)-N-(tetrahydropyran-3-yl)pyridazine-3-carboxamide] | – | Efficacy (GABA) % [2]: 81% |
| Cc1ccc(-c2noc(C)c2COc2ccc(C(=O)NC3CCOCC3)cn2)nn1 [Example 108, 6-((5-methyl-3-(6-methylpyridazin-3-yl)isoxazol-4-yl)methoxy)-N-tetrahydropyran-4-yl-pyridine-3-carboxamide] | 1.2 | – |
| CCc1onc(-c2ccc(C)nc2)c1COc1ccc(C(=O)NC2CCS(=O)(=O)CC2)cn1 [Example 120, N-(1,1-dioxidotetrahydro-2H-thiopyran-4-yl)-6-((5-ethyl-3-(6-methylpyridin-3-yl)isoxazol-4-yl)methoxy)pyridine-3-carboxamide] | 2.6 | – |
| Cc1ccc(-c2noc(C)c2COc2ccc(C(=O)N[C@H]3CCOC[C@@H]3O)cn2)cn1 [Example 127, N-((3R,4S)-3-hydroxytetrahydropyran-4-yl)-6-((5-methyl-3-(6-methyl-3-pyridyl)isoxazol-4-yl)methoxy)pyridine-3-carboxamide] | 1.5 | – |
| Cc1ncc(-c2noc(C)c2COc2ccc(C(=O)NC3CCOCC3)cn2)cc1F [Example 143, 6-((3-(5-fluoro-6-methyl-3-pyridyl)-5-methyl-isoxazol-4-yl)methoxy)-N-tetrahydropyran-4-yl-pyridine-3-carboxamide] | 1.2 | – |
| Cc1ccc(-c2noc(C)c2COc2ccc(C(=O)N3C4COCC3C4)nn2)cn1 [Example 157, 3-oxa-6-azabicyclo[3.1.1]heptan-6-yl(6-((5-methyl-3-(6-methylpyridin-3-yl)isoxazol-4-yl)methoxy)pyridazin-3-yl)methanone] | – | Efficacy (GABA) % [2]: 76% |
| Cc1onc(-c2ccc(Cl)nc2)c1COc1ccc(C(=O)NC2(C)COC2)nn1 [Example 161, 6-((3-(6-chloropyridin-3-yl)-5-methylisoxazol-4-yl)methoxy)-N-(3-methyloxetan-3-yl)pyridazine-3-carboxamide] | 1.6 | – |
| Cc1ccc(-c2noc(C)c2COc2ccc(C(=O)N[C@H]3C[C@H](OCC(F)F)C3)nn2)cn1 [Example 170, trans-N-3-((2,2-difluoroethoxy)cyclobutyl)-6-((5-methyl-3-(6-methylpyridin-3-yl)isoxazol-4-yl)methoxy)pyridazine-3-carboxamide] | 1.6 | – |
| Cc1ccc(-c2noc(C)c2COc2ccc(C(=O)N[C@@H]3CC[C@@H](OCC(F)F)C3)nn2)cn1 [Example 191, N-((1R,3R)-3-(2,2-difluoroethoxy)cyclopentyl)-6-((5-methyl-3-(6-methylpyridin-3-yl)isoxazol-4-yl)methoxy)pyridazine-3-carboxamide] | 1.6 | – |
| Cc1ncc2n1-c1ccc(Cl)cc1C(c1ccccc1F)=NC2 [Midazolam, reference compound] | – | potentiation of the GABA-induced current (positive control (PAM) at a maximally effective concentration): ~150%; Fold increase (positive control at a maximally effective concentration, 3-6 oocytes per 96-well plate): ~2.5 |
| Cc1onc(-c2cccnc2)c1COc1ccc(C(=O)NC2CCOCC2)nn1 [RE-A, 6-((5-methyl-3-(3-pyridyl)isoxazol-4-yl)methoxy)-N-tetrahydropyran-4-yl-pyridazine-3-carboxamide, reference compound] | – | Efficacy (GABA) % [3]: −3%; Fold increase h-GABA-A α5β3γ2 oocyte [4]: 0.97 |
| Cc1onc(-c2ccc(Cl)cn2)c1COc1ccc(C(=O)NC2CCOCC2)nn1 [RE-B, 6-((3-(5-chloro-2-pyridyl)-5-methyl-isoxazol-4-yl)methoxy)-N-tetrahydropyran-4-yl-pyridazine-3-carboxamide, reference compound] | – | Efficacy (GABA) % [3]: +3% |
| Cc1onc(-c2ccccn2)c1COc1ccc(C(=O)NC2CCOCC2)nn1 [RO-094, reference compound] | – | Efficacy (GABA) % [3]: −18%; Fold increase h-GABA-A α5β3γ2 oocyte [4]: 0.82 |
| Cc1onc(-c2cccnc2)c1COc1ccc(C(=O)NC2CCOCC2)cn1 [RO-159, reference compound] | – | Efficacy (GABA) % [3]: −12%; Fold increase h-GABA-A α5β3γ2 oocyte [4]: 0.88 |
| Cc1ccc(-c2noc(C)c2COc2ccc(C(=O)NC3CCOCC3)cn2)cc1 [RO-251, reference compound] | – | Efficacy (GABA) % [3]: −18%; Fold increase h-GABA-A α5β3γ2 oocyte [4]: 0.82 |
